Values after ≈ are worked out from the molar mass of the structure shown. Read-outs that look alike come from different tables or passages of the source.
Assays:
[1] = Saturation solubility in selected solvents/vehicles; format: physicochemical; settings: for solubility: thermodynamic from solid; for pH of solution in HP-beta-CD 15% / pH of solution in PEG400 30% / pH of solution in Tocrisolve / pH of solution in Mixed Micelles: solubility sample
Experimental: (§1) Saturation Solubility (= Thermodynamic Solubility)
(§2) Approximately 8.6 mg test compound per milliliter solvent/vehicle was stirred in HPLC vials (9 × 12 × 32 mm, Waters) at 350 rpm for 15 h. Samples of 10 µL each were taken and microscopically examined for presence of solid particles. If the active pharmacological ingredient (API) dissolved completely, more solid API was added, and stirring was continued for another 15 h. Addition of solid material was repeated up to 96 h or until residual solid particles could be detected. Samples of 0.5 mL were then transferred to Eppendorf Ultrafree filter tubes (Filter: PVDF 0.22 µm) and centrifuged at 14,500 rpm for 10 min. The filtrates were diluted in ethanol and analyzed for content by UPLC. The measurements were also conducted in 0.05 M aqueous phosphate buffer, fasted (FaSSIF), and fed (FeSSIF) simulated gastrointestinal fluid. […]

CYP3A4 = CYP3A4 (Homo sapiens, UniProt P08684); assay: Cytochrome P450 inhibition assay, CYP3A4; format: in vitro ADME
CYP3A4, sequence (P08684 whole entry): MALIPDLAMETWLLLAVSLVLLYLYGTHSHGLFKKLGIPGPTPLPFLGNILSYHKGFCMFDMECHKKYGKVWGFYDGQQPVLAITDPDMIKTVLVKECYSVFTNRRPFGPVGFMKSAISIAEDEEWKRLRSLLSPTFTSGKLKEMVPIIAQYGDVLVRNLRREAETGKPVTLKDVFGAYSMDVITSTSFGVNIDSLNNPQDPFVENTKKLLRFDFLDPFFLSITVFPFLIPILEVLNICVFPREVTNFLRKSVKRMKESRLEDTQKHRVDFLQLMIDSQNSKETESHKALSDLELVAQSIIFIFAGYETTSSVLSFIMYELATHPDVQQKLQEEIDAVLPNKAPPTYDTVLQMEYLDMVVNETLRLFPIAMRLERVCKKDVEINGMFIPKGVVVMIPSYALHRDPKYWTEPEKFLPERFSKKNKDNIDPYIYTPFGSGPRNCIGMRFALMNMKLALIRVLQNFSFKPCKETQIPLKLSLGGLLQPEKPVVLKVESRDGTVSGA

[2] = Saturation (thermodynamic) solubility in buffer, FaSSIF, FeSSIF; format: physicochemical; settings: thermodynamic from solid
Experimental: as §1, §2

CYP2D6 = CYP2D6 (Homo sapiens, UniProt P10635); assay: Cytochrome P450 inhibition assay, CYP2D6; format: in vitro ADME
CYP2D6, sequence (P10635 whole entry, the tested form may be a part): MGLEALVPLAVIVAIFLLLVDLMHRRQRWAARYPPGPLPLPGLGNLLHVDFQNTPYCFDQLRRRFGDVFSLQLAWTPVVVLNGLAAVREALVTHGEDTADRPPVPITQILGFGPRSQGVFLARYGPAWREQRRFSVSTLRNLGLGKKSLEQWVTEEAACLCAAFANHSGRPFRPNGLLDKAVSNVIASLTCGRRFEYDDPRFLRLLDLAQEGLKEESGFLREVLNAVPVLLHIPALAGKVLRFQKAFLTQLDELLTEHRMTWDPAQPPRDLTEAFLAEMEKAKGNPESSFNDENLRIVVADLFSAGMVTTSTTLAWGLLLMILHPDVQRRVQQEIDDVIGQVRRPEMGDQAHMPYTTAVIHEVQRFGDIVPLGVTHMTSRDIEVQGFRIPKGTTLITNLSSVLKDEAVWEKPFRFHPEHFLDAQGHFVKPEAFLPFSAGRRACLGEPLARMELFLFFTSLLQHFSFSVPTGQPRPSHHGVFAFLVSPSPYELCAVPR

mouse CB2R = mouse CB2R (Mus musculus, UniProt P47936); assay: biochemical; format: binding; set-up: bgal (beta-galactosidase fragment of the PathHunter system, named only in the cell line's name); host or cells: CHO-K1 (CHOK1mCB2_bgal)
mouse CB2R, sequence (P47936 whole entry, the tested form may be a part): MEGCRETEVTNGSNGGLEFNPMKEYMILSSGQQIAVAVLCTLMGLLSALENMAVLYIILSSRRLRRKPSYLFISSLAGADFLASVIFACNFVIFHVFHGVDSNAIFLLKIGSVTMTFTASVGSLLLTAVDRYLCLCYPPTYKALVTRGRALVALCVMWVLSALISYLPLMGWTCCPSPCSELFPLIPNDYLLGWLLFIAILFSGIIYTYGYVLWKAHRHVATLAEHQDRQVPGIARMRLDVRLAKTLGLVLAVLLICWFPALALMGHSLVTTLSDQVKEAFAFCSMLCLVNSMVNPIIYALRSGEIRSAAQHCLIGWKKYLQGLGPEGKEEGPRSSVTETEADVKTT
Experimental: Membrane fractions were prepared from cultured CHOK1hCB1_bgal, CHOK1hCB2_bgal, and CHOK1mCB2_bgal cells (DiscoveRx, Fremont, CA, USA) as previously described. Protein concentration was determined using the Pierce bicinchoninic acid (BCA) protein assay (Rochford, IL, USA) as per the manufacturer’s instructions.
Radio ligand-binding assays were carried out as described by Souethoudt et al. (2018). Briefly, membranes from cells expressing human CB2R or CB1R or mouse CB2R and the radioligand, [^3H]-CP55940 (Perkin Elmer, Basel, Switzerland) was used. […] Membrane aliquots containing 5 µg (CHOK1hCB1_bgal) or 1 µg (CHOK1hCB2_bgal) of membrane protein in 100 µL assay buffer (50 mMTris-HCl, 5 mM MgCl2, 0.1% bovine serum albumin (BSA), pH 7.4) were incubated at 30 °C for 1 h, in presence of 3.5 nM of [^3H]-CP55940 (CHOK1hCB1_bgal) or 1.5 nM [^3H]-CP55940 (CHOK1hCB2_bgal). The incubation was terminated by rapid filtration performed on glass microfibre (GF/C) filters (Whatman International, Maidstone, UK), presoaked for 30 min with 0.25% polyethyleneimine (PEI), and using a Brandel harvester (Brandel, Gaithersburg, MD, USA). Filter-bound radioactivity was determined by scintillation spectrometry using a Tri-Carb 2900 TR liquid scintillation counter (Perkin Elmer, Boston, MA, USA). For mouse experiments, spleens were collected as previously described and resuspended in 2 mM Tris-EDTA, 320 mM sucrose, 5 mM MgCl2 (pH 7.4). Tissue was homogenized with a Potter homogenizer and centrifuged three times at 1000× g (10 min). The supernatants were centrifuged at 18,000× g (30 min), and the pellets were resuspended in assay buffer (50 mM Tris-HCl, 2 mM Tris-EDTA, 3 mM MgCl2, pH 7.4). These membrane fractions were used in rapid filtration assays with 400 pM of [^3H]-CP55,940. In all receptor binding experiments, nonspecific binding was determined in the presence of 1 µM “cold” agonist.

[3] = cited from earlier work; for PAMPA Peff: * at end of cell: previously published; for PAMPA %Acceptor / PAMPA %Donor / PAMPA %Membrane: * previously published
[4] = cited from earlier work; for Hepatocyte Clearance mouse: mouse hepatocytes, * previously published; for clearance in mouse hepatocytes (class in words): underlying data previously published
[5] = phosphate buffer pH 6.5; * previously published; cited from earlier work
human CB1R = molecular target: T1, human CB1R (Homo sapiens, UniProt P21554)
T1 construct: host or cells: CHO
T1 sequence (P21554 whole entry): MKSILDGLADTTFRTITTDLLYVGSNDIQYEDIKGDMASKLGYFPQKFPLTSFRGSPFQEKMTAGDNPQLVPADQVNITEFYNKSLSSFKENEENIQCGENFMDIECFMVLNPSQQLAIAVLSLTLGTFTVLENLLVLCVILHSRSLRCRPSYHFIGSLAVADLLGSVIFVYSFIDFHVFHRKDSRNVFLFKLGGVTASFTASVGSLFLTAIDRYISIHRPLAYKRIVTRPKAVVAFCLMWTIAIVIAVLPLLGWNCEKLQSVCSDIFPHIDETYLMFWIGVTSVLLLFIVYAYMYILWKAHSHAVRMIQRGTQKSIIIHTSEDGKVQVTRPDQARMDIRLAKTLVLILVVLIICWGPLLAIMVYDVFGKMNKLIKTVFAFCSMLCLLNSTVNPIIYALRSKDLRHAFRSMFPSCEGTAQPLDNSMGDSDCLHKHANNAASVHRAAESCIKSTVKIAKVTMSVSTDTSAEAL

human CB2R = molecular target: T2, human CB2R (Homo sapiens, UniProt P34972); settings: cited from earlier work; for Ki: read-out: hCB2R: Ki
T2 construct: bgal (beta-galactosidase fragment of the PathHunter system, named only in the cell line's name); host or cells: CHO-K1 (CHOK1hCB2_bgal)
T2 sequence (P34972 whole entry, the tested form may be a part): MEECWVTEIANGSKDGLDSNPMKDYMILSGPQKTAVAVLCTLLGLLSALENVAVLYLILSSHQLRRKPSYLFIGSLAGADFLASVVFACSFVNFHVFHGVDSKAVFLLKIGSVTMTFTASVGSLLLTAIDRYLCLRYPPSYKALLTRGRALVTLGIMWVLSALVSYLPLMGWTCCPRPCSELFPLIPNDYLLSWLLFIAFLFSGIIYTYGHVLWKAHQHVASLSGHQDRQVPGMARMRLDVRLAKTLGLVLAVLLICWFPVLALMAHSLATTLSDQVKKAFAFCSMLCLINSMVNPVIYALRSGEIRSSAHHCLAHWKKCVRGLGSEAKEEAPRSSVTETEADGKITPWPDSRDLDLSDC

[6] = aqueous with cosolvent or surfactant or cyclodextrin, in demin. water, n = 1, HU308 crystalline material, read-out: Solubility in HP-beta-CD 15%
[7] = aqueous with cosolvent or surfactant or cyclodextrin, n = 1, RO6871085 as hydrochloride salt, HU308 crystalline material, > = saturation not achieved, read-out: Solubility in Tocrisolve
[8] = oil or lipid, n = 1, RO6871085 as hydrochloride salt, HU308 crystalline material, > = saturation not achieved, read-out: Solubility in MCT (Miglyol 812)
[9] = RO6871085 as hydrochloride salt
[10] = FaSSIF pH 6.5, read-out: Thermodynamic Solubility in FaSSIF (pH 6.5)
[11] = FeSSIF pH 5.5, read-out: Thermodynamic Solubility in FeSSIF (pH 5.5)
[12] = aqueous phosphate buffer pH 6.5, read-out: Thermodynamic Solubility in Aqueous Buffer (pH 6.5)
[13] = pH 6, aqueous with cosolvent or surfactant or cyclodextrin, 200 mM glycocholic acid, 200 mM lecithin in water for injection, pH 6, n = 1, RO6871085 as hydrochloride salt, read-out: Solubility in Mixed Micelles
[14] = [3H]-CP55940 displacement, read-out: mouse CB2R: Ki
[15] = * previously published; read-out: hCB1R: beta arrestin EC50; cited from earlier work
[16] = aqueous with cosolvent or surfactant or cyclodextrin, in demin. water, n = 1, HU308 crystalline material, read-out: Solubility in PEG400 30%
[17] = species ratio of binding affinity
[18] = [3H]-CP55940 displacement, * previously published

Structure (SMILES)	solubility in Tocrisolve 100 [1]	solubility [1, 6] [µg/mL]	solubility [1, 7] [µg/mL]	solubility [1, 8] [µg/mL]	pH of solution in HP-beta-CD 15% [1]	pH of solution in PEG400 30% [1]	pH of solution in Tocrisolve [1, 9]	solubility thermodynamic [2, 10] [µg/mL]	solubility thermodynamic [2, 11] [µg/mL]	solubility thermodynamic [2, 12] [µg/mL]	PAMPA Peff [3]	PAMPA %Acceptor [3] [%]	PAMPA %Donor [3] [%]	PAMPA %Membrane [3] [%]	Hepatocyte Clearance mouse [4] [μL/min/Mio cells]	Kinetic Solubility [5] [µg/mL]	solubility [1, 13] [µg/mL]	pH of solution in Mixed Micelles [1, 9]	IC50 (CYP3A4; read-out: IC50 CYP3A4) [µM]	IC50 (CYP2D6; read-out: IC50 CYP2D6) [µM]	also measured
CCCCCCC(C)(C)c1cc(OC)c([C@H]2C=C(CO)[C@H]3C[C@@H]2C3(C)C)c(OC)c1 [HU308, {(1S,4S,5S)-4-[2,6-Dimethoxy-4-(2-methyloctan-2-yl)phenyl]-6,6-dimethylbicyclo[3.1.1]hept-2-en-2-yl}methanol, reference compound]	considerably lower	20 (≈ 48.2 µM)	1600	> 10300	5.7	5.1	6.1	52 (≈ 125 µM)	60 (≈ 145 µM)	< 1	2.53 10*-6 cm/s	3	23	74	4.7	< 0.75	–	–	–	–	IC50 (CYP3A4): > 50 µM; IC50 (CYP2D6): > 50 µM; Ki (mouse CB2R): 0.223 µM; EC50 (human CB1R; read-out: hCB1R: beta arrestin EC50; * previously published; cited from earlier work): > 10 µM
CCCCCCC(C)(C)c1cc(OC)c(C2=C[C@H]3CC[C@]2(CO)C3(C)C)c(OC)c1 [HU910, {(1S,4R)-2-[2,6-dimethoxy-4-(2-methyloctan-2-yl)phenyl]-7,7-dimethylbicyclo[2.2.1]hept-2-en-1-yl}methanol, reference compound]	good solvent	320 (≈ 772 µM)	19200	> 87800	6.2	6.0	6.2	59 (≈ 142 µM)	128 (≈ 309 µM)	< 1	0.45 10*-6 cm/s	1	42	57	34	< 0.5	4400	6.2	37	> 50	time of stirring to full dissolution in Tocrisolve 100 ([1]; data not shown): approximately 72 h; Solubility in PEG400 30% ([1]; in demin. water, n = 1, HU308 crystalline material): < LOD; hCB2R Ki/mouse CB2R Ki (mouse CB2R): 0.2; Ki (mouse CB2R; [14]): 0.276 µM; Ki (human CB2R): 0.043 µM; EC50 (human CB1R; [15]): > 30 µM
CNC(=O)[C@@H](NC(=O)c1cc(OCC2(C)COC2)c(C2CC2)cn1)C(C)(C)C [RO6851228, 5-Cyclopropyl-N-[(2S)-3,3-dimethyl-1-(methylamino)-1-oxobutan-2-yl]-4-[(3-methyloxetan-3-yl)methoxy]pyridine-2-carboxamide]	good solvent	35500 (≈ 91100 µM)	15000	> 19000	7.6	7.4	7.3	421 (≈ 1080 µM)	243 (≈ 624 µM)	497 (≈ 1280 µM)	5.17 10*-6 cm/s	19	79	3	46	–	> 1600	6.6	> 50	> 50	solubility [1, 16]: 5900 µg/mL (≈ 15100 µM); hCB2R Ki/mouse CB2R Ki (mouse CB2R; [17]): 45; Ki (human CB2R; [18]): 0.045 µM; hCB1R Ki/hCB2R Ki (human CB2R; binding selectivity, * previously published): 147 *
Cc1nc([C@](C)(CC2CC2)NC(=O)c2cc(OCC(F)(F)F)c(C3CC3)cn2)no1 [RO6871085, 5-Cyclopropyl-N-[(2S)-1-cyclopropyl-2-(5-methyl-1,2,4-oxadiazol-3-yl)propan-2-yl]-4-(2,2,2-trifluoroethoxy)pyridine-2-carboxamide]	good solvent	–	> 30000	2300	–	–	1.2	37 (≈ 87.2 µM)	56 (≈ 132 µM)	3 (≈ 7.07 µM)	2.44 10*-6 cm/s	2	20	78	27	–	200	6.1	37	34	hCB2R Ki/mouse CB2R Ki (mouse CB2R; [17]): 13; Ki (human CB2R; [18]): 0.076 µM; clearance in mouse hepatocytes (class in words) [4]: medium; EC50 (human CB1R; [15]): > 30 µM
CC(C)(C)c1nc(N2CC[C@H](O)C2)c2nnn(Cc3nnnn3C3CC3)c2n1 [RO6871304, (3S)-1-{5-tert-butyl-3-[(1-cyclopropyl-1H-tetrazol-5-yl)methyl]-3H-[1,2, 3]triazolo[4,5-d]pyrimidin-7-yl}pyrrolidin-3-ol]	considerably lower	7200 (≈ 18700 µM)	1300	2300	6.0	6.1	5.7	–	–	–	3.06 10*-6 cm/s	8	62	30	140	162 ± 2	> 1800	6.6	> 50	> 50	solubility [1, 16]: 200 µg/mL (≈ 520 µM); Ki (mouse CB2R; [14]): 0.034 µM; hCB2R Ki/mouse CB2R Ki (mouse CB2R; [17]): 0.5; clearance in mouse hepatocytes (class in words) [4]: high

— paper PMC6767236, “Selective Cannabinoid 2 Receptor Agonists as Potential Therapeutic Drugs for the Treatment of Endotoxin-Induced Uveitis” (Molecules, 2019)
